From patent publication US9079866B2, “Flap modulators” (JANSSEN PHARMACEUTICA NV, priority 2013, dated 2015)
Where a name gives a salt, the structure may show the parent alone. Read-outs that look alike come from different tables or passages of the source.

How the values were obtained:
[1] = tested on: leukotriene pathway in human whole blood (LTB4 levels); experiment: Human whole blood assay (A23187-stimulated LTB4); assay type: cell-based; conditions: Homo sapiens, read-out: LTB4 IC50 1:1
In short: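 Single-replicate data from at least one healthy donor: compound pre-incubated 15 min at 37° Celsius in 1:1 RPMI-diluted heparinised blood, followed by 30 min calcium ionophore A23187 (7 μg/mL) challenge at 37° Celsius. LTB4 in plasma quantified by kit; IC50 via 4-parameter equation.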

human FLAP = human FLAP (Homo sapiens (Human), UniProt P20292); experiment: FLAP binding assay (HTRF format); conditions: HTRF format
In short: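 Samples were run in duplicate on each of two plates and the plate results averaged. Read-out is the HTRF signal ratio.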

[2] = human whole blood diluted 1:1, A23187-stimulated
[3] = human whole blood diluted 1:1 in RPMI, A23187-stimulated LTB4
[4] = human FLAP wild type, average of two plates, duplicates

Sequence of human FLAP (P20292 whole entry): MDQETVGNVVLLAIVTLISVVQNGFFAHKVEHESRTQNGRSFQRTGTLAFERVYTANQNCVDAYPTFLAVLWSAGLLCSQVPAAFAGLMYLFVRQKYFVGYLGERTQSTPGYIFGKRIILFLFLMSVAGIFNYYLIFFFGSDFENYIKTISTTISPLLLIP

SMILES | IC50 [1, 2] | Ki (human FLAP; wild type FLAP) | IC50 [1, 3] | Ki (human FLAP; [4]) | IC50 [1]
CC(C)(CO)NS(=O)(=O)c1ccccc1-c1ccc(-c2cnc(N)c(F)c2)c(F)c1 [Example 667, 4′-(6-Amino-5-fluoropyridin-3-yl)-3′-fluoro-N-(1-hydroxy-2-methylpropan-2-yl)-[1,1′-biphenyl]-2-sulfonamide] | 39.6 nM | 6 nM |  |  | 
CS(=O)(=O)c1ccc(CSc2ccccc2-c2ccc(-c3cnc(N)cn3)c(F)c2)cc1 [Example 205, 5-(3-Fluoro-2′-{[4-(methylsulfonyl)benzyl]sulfanyl}biphenyl-4-yl)pyrazin-2-amine] |  |  | 66 nM | 8 nM | 
O=S(=O)(NCCO)c1ccccc1-c1ccc(-c2cnc3[nH]ccc3c2)c(F)c1 [Example 366, 3′-Fluoro-N-(2-hydroxyethyl)-4′-(1H-pyrrolo[2,3-b]pyridin-5-yl)biphenyl-2-sulfonamide] |  |  | 40 nM | 1 nM | 
Nc1cnc(-c2ccc(-c3ccccc3C(=O)N3CCS(=O)(=O)CC3)cc2F)cn1 [Example 509, 5-{2′-[(1,1-Dioxidothiomorpholin-4-yl)carbonyl]-3-fluorobiphenyl-4-yl}pyrazin-2-amine] | 93 nM | 147 nM |  |  | 
Nc1cnc(-c2ccc(-c3ccc(C(F)(F)F)cc3CN3CCC(N)CC3)cc2F)cn1 [Example 606, 5-{2′-[(4-Aminopiperidin-1-yl)methyl]-3-fluoro-4′-(trifluoromethyl)biphenyl-4-yl}pyrazin-2-amine] | 2620 nM | 46.3 nM |  |  | 
C[C@@H](CO)NS(=O)(=O)c1ccccc1-c1ccc(-c2ncc(N)nc2C#N)c(F)c1 [Example 711, 4′-(5-Amino-3-cyanopyrazin-2-yl)-3′-fluoro-N-[(1S)-2-hydroxy-1-methylethyl]biphenyl-2-sulfonamide] | 142 nM | 41.7 nM |  |  | 
C[Si](C)(C)CCOCOc1cc(C(F)(F)F)ccc1-c1ccc(-c2cnc(N)nc2)c(F)c1 [Example 557, 5-[3-Fluoro-4′-(trifluoromethyl)-2′-{[2-(trimethylsilyl)ethoxy]methoxy}biphenyl-4-yl]-pyrimidin-2-amine] |  | 147 nM |  |  | 1070 nM
Nc1cnc(-c2ccc(-c3ccccc3SCCNC(=O)c3ccccc3)cc2F)cn1 [Example 204, N-(2-{[4′-(5-Aminopyrazin-2-yl)-3′-fluorobiphenyl-2-yl]sulfanyl}ethyl)benzamide] |  |  | 128 nM | 4 nM | 
Nc1cnc(-c2ccc(-c3ccccc3CSc3ccc(N)nn3)cc2F)cn1 [Example 240, 6-(((4′-(5-Aminopyrazin-2-yl)-3′-fluoro-[1,1′-biphenyl]-2-yl)methyl)thio)pyridazin-3-amine hydrochloride] |  |  | 21 nM | 2 nM | 
Nc1ncc(-c2ccc(-c3ccc(C(F)(F)F)cc3Oc3ncccn3)cn2)cn1 [Example 564, 5-{5-[2-(Pyrimidin-2-yloxy)-4-(trifluoromethyl)phenyl]pyrridn-2-yl}pyrimidin-2-amine] | 583 nM | 200 nM |  |  | 
CC(C)(C)NS(=O)(=O)c1ccccc1-c1ccc(-c2cnc3[nH]cc(CO)c3c2)c(F)c1 [Example 455, N-tert-Butyl-3′-fluoro-4′-[3-(hydroxymethyl)-1H-pyrrolo[2,3-b]pyridin-5-yl]biphenyl-2-sulfonamide] | 94 nM | 1 nM |  |  | 
N#Cc1cccc(Oc2ccccc2-c2ccc(-c3cnc(N)nc3)c(F)c2)n1 [Example 618, 6-{[4′-(2-Aminopyrimidin-5-yl)-3′-fluorobiphenyl-2-yl]oxy}pyridine-2-carbonitrile] | 211 nM | 14.6 nM |  |  | 
N#Cc1nc(N)cnc1-c1ccc(-c2ccccc2Oc2ncccn2)cc1F [Example 747, 6-Amino-3-[3-fluoro-2′-(pyrimidin-2-yloxy)biphenyl-4-yl]pyrazine-2-carbonitrile] | 262 nM | 27.1 nM |  |  | 
Nc1ccc(-c2ccc(-c3ccccc3S(=O)(=O)N[C@@H](c3ccccc3)C(F)(F)F)cc2F)cn1 [Example 351, (S)-4′-(6-Aminopyridin-3-yl)-3′-fluoro-N-(2,2,2-trifluoro-1-phenylethyl)-[1,1′-biphenyl]-2-sulfonamide] |  |  | 297 nM | 17 nM | 
Nc1cnc(-c2ccc(-c3ccccc3-c3ccc(-c4cnc(N)cn4)c(F)c3)cc2F)cn1 [Example 602, 5,5′-(3,3″-Difluoro-1,1′:2′,1″-terphenyl-4,4″-diyl)dipyrazin-2-amine] | 16.7 nM | 0.6 nM |  |  | 
Nc1cnc(-c2ccc(-c3cccnc3OC3CCC3)cc2F)cn1 [Example 405, 5-{4-[2-(Cyclobutyloxy)pyridin-3-yl]-2-fluorophenyl}pyrazin-2-amine] | 2710 nM | 100 nM |  |  | 
CC(C)(C)NC(=O)c1cc(C(F)(F)F)ccc1-c1ccc(-c2cnc(N)cn2)c(F)c1 [Example 784, 2-[4-(5-Aminopyrazin-2-yl)-3-fluoro-phenyl]-N-tert-butyl-5-(trifluoromethyl)benzamide] | 110 nM | 7.9 nM |  |  | 

Further lines, with some results ahead:

IC50 [1, 2] | Ki (human FLAP; wild type FLAP) | IC50 [1, 3] | Ki (human FLAP; [4]) | SMILES | IC50 [1]
 |  | 51 nM | 10 nM | Nc1cnc(-c2ccc(-c3ccccc3S(=O)(=O)N3CC[C@@H](O)C3)cc2F)cn1 [Example 185, (3R)-1-{[4′-(5-Aminopyrazin-2-yl)-3′-fluorobiphenyl-2-yl]sulfonyl}pyrrolidin-3-ol trifluoroacetic acid salt] | 
 |  | 132 nM | 16 nM | Nc1cnc(-c2ccc(-c3ccccc3S(=O)(=O)N[C@H]3CCNC3=O)cc2F)cn1 [Example 107, (S)-4′-(5-Aminopyrazin-2-yl)-3′-fluoro-N-(2-oxopyrrolidin-3-yl)-[1,1′-biphenyl]-2-sulfonamide] | 
 |  | 42 nM | 8 nM | C[C@@H](O)CNS(=O)(=O)c1ccccc1-c1ccc(-c2cnc(N)cn2)c(F)c1 [Example 97, (R)-4′-(5-aminopyrazin-2-yl)-3′-fluoro-N-(2-hydroxypropyl)-[1,1′-biphenyl]-2-sulfonamide] | 
3330 nM | 343 nM |  |  | N#Cc1nc(N)ccc1-c1ccc(-c2ccccc2S(=O)(=O)C2CC2)cc1F [Example 443, 6-Amino-3-(2′-(cyclopropylsulfonyl)-3-fluoro-[1,1′-biphenyl]-4-yl)picolinonitrile] | 
 |  | 248 nM | 2 nM | CC(C)CNS(=O)(=O)c1ccccc1-c1ccc(-c2cnc(N)nc2)c(F)c1 [Example 294, 4′-(2-Aminopyrimidin-5-yl)-3′-fluoro-N-(2-methylpropyl)biphenyl-2-sulfonamide trifluoroacetic acid salt] | 
 |  | 1840 nM | 10 nM | NC(=O)NCCNS(=O)(=O)c1ccccc1-c1ccc(-c2cnc(N)cn2)c(F)c1 [Example 157, 4′-(5-Aminopyrazin-2-yl)N—N-[2-(carbamoylamino)ethyl]-3′-fluorobiphenyl-2-sulfonamide] | 
 |  | 36 nM | 7 nM | Nc1cnc(-c2ccc(-c3ccccc3S(=O)(=O)NCCO)cc2F)cn1 [Example 88, 4′-(5-Aminopyrazin-2-yl)-3′-fluoro-N-(2-hydroxyethyl)biphenyl-2-sulfonamide] | 
205 nM | 28 nM |  |  | Nc1cnc(-c2ccc(-c3ccccc3N3CCCCS3(=O)=O)cc2F)cn1 [Example 857, 5-[2′-(1,1-Dioxido-1,2-thiazinan-2-yl)-3-fluorobiphenyl-4-yl]pyrazin-2-amine] | 
 |  | 537 nM | 81 nM | NCCNS(=O)(=O)c1ccccc1-c1ccc(-c2cnc(N)cn2)c(F)c1 [Example 152, N-(2-Aminoethyl)-4′-(5-aminopyrazin-2-yl)-3′-fluorobiphenyl-2-sulfonamide] | 
 |  | > 10000 nM | 351 nM | C[C@H](NS(=O)(=O)c1ccccc1-c1ccc(-c2cnc(N)cn2)c(F)c1)C(=O)O [Example 156, (S)-2-(4′-(5-Aminopyrazin-2-yl)-3′-fluoro-[1,1′-biphenyl]-2-ylsulfonamido)propanoic acid] | 
71 nM | 18 nM |  |  | C[C@H](NC(=O)c1ccccc1-c1ccc(-c2cnc(N)cn2)c(F)c1)C(F)(F)F [Example 505, 4′-(5-Aminopyrazin-2-yl)-3′-fluoro-N-[(1S)-2,2,2-trifluoro-1-methylethyl]biphenyl-2-carboxamide] | 
32 nM | 9 nM |  |  | CC(C)S(=O)(=O)c1ncccc1-c1ccc(-c2cnc(N)cn2)c(F)c1 [Example 395, 5-(2-Fluoro-4-{2-[(1-methylethyl)sulfonyl]pyridin-3-yl}phenyl)pyrazin-2-amine] | 
 |  | 22 nM | 3 nM | Nc1cnc(-c2ccc(-c3ccccc3S(=O)(=O)N3CC(O)C3)cc2F)cn1 [Example 119, 1-{[4′-(5-Aminopyrazin-2-yl)-3′-fluorobiphenyl-2-yl]sulfonyl}azetidin-3-ol] | 
 |  | 18 nM | 1 nM | Nc1cnc(-c2ccc(-c3ccccc3S(=O)(=O)N[C@@H]3CCCC[C@@H]3CO)cc2F)cn1 (racemic) [Example 122, racemic (cis)-4′-(5-Aminopyrazin-2-yl)-3′-fluoro-N-[2-(hydroxymethyl)cyclohexyl]biphenyl-2-sulfonamide] | 
 |  | 695 nM | 144 nM | Nc1cnc(-c2ccc(-c3ccccc3S(=O)(=O)N3C[C@@H]4C[C@H]3CN4)cc2F)cn1 [Example 131, 5-(2′-((1S,4S)-2,5-Diazabicyclo[2.2.1]heptan-2-ylsulfonyl)-3-fluoro-[1,1′-biphenyl]-4-yl)pyrazin-2-amine] | 
 |  | 420 nM | 103 nM | CNS(=O)(=O)c1ccccc1-c1ccc(-c2cnc(N)nc2)c(F)c1 [Example 288, 4′-(2-Aminopyrimidin-5-yl)-3′-fluoro-N-methylbiphenyl-2-sulfonamide trifluoroacetic acid salt] | 
